Results: patent US20250283073A1 (ORNA THERAPEUTICS, INC., priority 2021, published 2025)

Key:
primary human T cells = assay: FLuc circRNA LNP transfection of activated primary human T cells with or without ApoE3; format: cell-based; details: 200 ng RNA/well, 24 hours, 4 donors
Description: Primary human T cells from independent donors were stimulated with aCD3/aCD28 and allowed to proliferate for 6 days in the presence of human serum and IL-2. Then, 100,000 cells were plated in a 96 well plate and LNPs containing circRNA coding for Firefly Luciferase (FLuc) were added to the cells at 200 ng RNA/well with or without Apolipoprotein E3 (ApoE3). After 24-hour incubation, luminescence was quantified using the Bright-Glo Luciferase Assay System (Promega) according to manufacturer's instructions and background luminescence from cells not treated with LNPs was subtracted. […] (See Example 70 for LNP formulation procesure, e.g., for 10a-27 (5.7A), 10a-26 (5.7A), 10a-27 (4.5D), and 10a-26 (4.5D) LNPs.)

splenic immune cells = assay: Cre circRNA LNP transfection of splenic immune cells in Ai9 Cre reporter mice (tdTomato); format: in vivo; details: 0.5 mg/kg Cre RNA LNPs i.v., 48 hours
Description: Circular RNAs encoding Cre recombinase (Cre) are encapsulated into lipid nanoparticles as previously described. Female, 6-8 week old B6.Cg-Gt(ROSA)26Sortm9(CAG-tdTomato)Hze/J (Ai9) mice were dosed with lipid nanoparticles at 0.5 mg/kg RNA intravenously. Fluorescent tdTomato protein was transcribed and translated in Ai9 mice upon Cre recombination, meaning circular RNAs have been delivered to and translated in tdTomato+ cells. After 48 hr, mice were euthanized and the spleens were harvested, processed into a single cell suspension, and stained with various fluorophore-conjugated antibodies for immunophenotyping via flow cytometry.
Ai9 mice (B6.Cg-Gt(ROSA)26Sortm9(CAG-tdTomato)Hze/J, female, 6-8 weeks, n=3 per group) were injected i.v. with 0.5 mg/kg Cre circRNA LNPs or PBS. Ai9 mice transcribe and translate the fluorescent reporter tdTomato upon Cre recombination; meaning cells which are tdTomato+ have successfully been transfected with Cre circRNA. […] Flow cytometry was performed using an Attune Nxt Flow Cytometer (Thermo).

Q: With `CCCCCCCCC(CCCCCC)C(=O)OCCCCCCN(CCCCCCOC(=O)C(CCCCCC)CCCCCCCC)CCCn1ccnc1C` (centres unmarked) [Lipid 10a-27, ((3-(2-methyl-1H-imidazol-1-yl)propyl)azanediyl)bis(hexane-6,1-diyl) bis(2-hexyldecanoate)] as the molecule, how does the Firefly luminescence (primary human T cells) read?
A: generally produced higher luminescence than those containing Lipid 10a-26

Q: And the “tdTomato+ splenic immune cells” value (splenic immune cells)?
A: transfect significantly more splenic immune cells than those made with Lipid 10a-46
